Experimental findings from patent US8716295B2, “Fluoroquinolone derivatives or sulfonamide moiety-containing compounds as inhibitors of tyrosyl-dnaphosphodiesterase (TDP1)” (priority 2010, dated 2014) are described below.

One assay concerns the target recombinant Tdp1 (Homo sapiens, UniProt Q9NUW8). Briefly: Gel-based Tdp1 catalytic activity inhibition assay (5'-32P-labeled N14Y DNA substrate, denaturing PAGE). It is filed as biochemical. The note with it: for IC50: 0.2 nmol/L recombinant Tdp1, 1 nmol/L N14Y substrate, 15 min, room temperature. Here is the method:
5′-^32P-labeled DNA substrate (1 nmol/L; N14Y; 5′-[…]-pY-3′) was incubated with 0.2 nmol/L recombinant Tdp1 in the absence or presence of inhibitor for 15 min at room temperature in an assay buffer containing 1×PBS, pH 7.4, 80 mmol/L KCl and 0.01% Tween-20. Reactions were terminated by the addition of 1 volume of gel loading buffer [99.5% (v/v) formamide, 5 mmol/L EDTA, 0.01% (w/v) xylene cyanol, and 0.01% (w/v) bromophenol blue]. Samples were subjected to a 16% denaturing PAGE and gels were exposed after drying to a PhosphorImager screen (GE Healthcare). Gel images were scanned using a Typhoon 8600 (GE Healthcare) and densitometric analyses were performed using the ImageQuant software package (GE Healthcare).

The test system of assay [1] is human osteosarcoma U2OS cells. Briefly: Cytotoxicity/proliferation (MTS) assay for synergy with camptothecin. Type of assay: cell-based. As to conditions: 72 hours, NF-SDM at 3, 6 and 12 μM. Here is the method:
U2OS cells (Developmental Therapeutics Program, NCI) were plated at 3×10^3 cells in a total volume of 100 μl per well in a 96 well plate and incubated at 37° C./5% CO2 for 24 hours prior to drug treatment. CPT and another drug of interest (both in DMSO stock solution) were prepared at double the desired concentration, and serially diluted in cells' media. After medium was aspirated off cells, 50 μl of CPT was plated down each column at four-fold dilutions in subsequent columns and 50 μl of another drug of interest was plated across rows, at two-fold dilutions in subsequent rows. A single drug dose response was also included for each drug tested, to which 50 μl of regular media was added to reconstitute a final volume of 100 μl in each well. Plates were further incubated for 72 hours and proliferation was assayed by adding 20 μl of 3-(4,5-dimethylthiazol-2-yl)-5-(3 carboxymethoxyphenyl)-2-(4-sulfophenyl)-2H-tetrazolium (MTS) Cell Titer Reagent (Promega) to each well. Plates were lightly mixed and placed back into the incubator until the appropriate color change occurred (˜1 hr), at which point plates were read on a Molecular Device Gemini fluorescence plate reader at an absorbance of 490 nm for cell viability. Raw data were plotted using GraphPad Prism and compared to each sample's control (GraphPad Software Inc.).

Setting [2] is: read-out: unable to inhibit Tdp1 / inactive at concentrations up to.

Entries after “also recorded” stand apart in the source; their conditions may differ. Where two headings read alike, the source gives them in different places. Bounds are passed on as bounds.

Chain of recombinant Tdp1 (Q9NUW8 whole entry): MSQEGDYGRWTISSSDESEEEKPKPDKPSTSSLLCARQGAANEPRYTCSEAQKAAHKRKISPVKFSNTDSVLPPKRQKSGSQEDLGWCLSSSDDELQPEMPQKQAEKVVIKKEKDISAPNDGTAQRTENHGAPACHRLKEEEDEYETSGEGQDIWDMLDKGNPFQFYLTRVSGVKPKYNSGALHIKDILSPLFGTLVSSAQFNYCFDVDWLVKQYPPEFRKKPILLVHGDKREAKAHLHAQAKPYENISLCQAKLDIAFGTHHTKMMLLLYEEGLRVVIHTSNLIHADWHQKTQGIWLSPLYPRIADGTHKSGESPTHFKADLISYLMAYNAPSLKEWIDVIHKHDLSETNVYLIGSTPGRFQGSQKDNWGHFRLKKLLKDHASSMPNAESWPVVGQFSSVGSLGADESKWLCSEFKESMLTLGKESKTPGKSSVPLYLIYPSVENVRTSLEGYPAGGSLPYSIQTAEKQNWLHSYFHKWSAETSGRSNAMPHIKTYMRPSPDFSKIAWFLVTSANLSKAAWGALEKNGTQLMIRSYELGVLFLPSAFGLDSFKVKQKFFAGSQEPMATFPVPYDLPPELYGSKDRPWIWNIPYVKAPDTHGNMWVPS

For `CCn1cc(C(=O)O)c(=O)c2cc(F)c(N3CCNCC3)cc21` [norfloxacin], the IC50 on recombinant Tdp1 (setting [2]) is more than 333 µM.

As for `CCn1cc(C(=O)O)c(=O)c2cc(F)c(N3CCN(CNc4ccc(S(=O)(=O)Nc5nc(C)cc(C)n5)cc4)CC3)cc21` [NF-SDM], the “Tdp1 inhibitory activity (in words)” value at recombinant Tdp1 was “nanomolar range”. Besides, the IC50 on recombinant Tdp1 (read-out: inhibit Tdp1 catalytic activity (IC50 Tdp1 inhibition)) is 0.005 µM. The “synergy with the TopI poison camptothecin (CPT) on cell growth/viability” value in assay [1] was “synergize with CPT; also recorded: synergistic effect; also recorded: acts synergistically”.

Regarding `Cc1cc(C)nc(NS(=O)(=O)c2ccc(N)cc2)n1` [sulfadimidine], the “Tdp1 inhibitory activity (in words)” value at recombinant Tdp1 is reported as “does not inhibit Tdp1”. The IC50 at recombinant Tdp1 (setting [2]) was more than 333 µM.

As for `COc1c(N2CCNC(C)C2)c(F)cc2c(=O)c(C(=O)O)cn(C3CC3)c12` (stereo not shown) [gatifloxacin], on recombinant Tdp1 (setting [2]), the IC50 was more than 333 µM.
